The values that follow come from patent publication US4425337A, “Adjuvants for rectal delivery of drug” (priority 1981, dated 1984).

One data set can be described thus: in vivo. Particulars: rat, 10 mg/kg.
For data set [1] the following is noted: rat, in vivo; for % Bioavailability ± SEM, Gentamicin: 90 min. Here is the method:
(§1) Microenemas are defined as small volume (0.3 ml) aqueous solutions containing drug/adjuvant compounds, administered with a 1 cc syringe at an intra-rectal depth of 2.5 cm.
The cefoxitin or gentamicin was administered as sodium cefoxitin or gentamicin sulfate at 10 mg/kg body weight. The adjuvants were administered at 20 mg/kg body weight and n represents the number of animals.

The conditions of data set [2]: rat, in vivo, 10 mg/kg, 1.5 h. The method, then:
as §1
AUC means area under serum drug level curve from t=0 minutes to t=90 minutes.
Gentamicin bioavailability: Concentration curves for chlorpromazine and perphenazine in rat microenema rectal delivery system.

Procedure for in vivo: Method: Adult male Sprague/Dawley rats (anesthetized with ethylcarbamate) were given intra-rectal aqueous microenemas. Microenemas are defined as small volume (0.3 ml) aqueous solutions containing drug/adjuvant compounds, administered with a 1 cc syringe at an intra-rectal depth of 2.5 cm. Bioavailabilities versus intravenous administration were calculated as a measure of drug delivery according to the following formula: [formula] wherein

One may read the bioavailability as the share of a dose that reaches the circulation, judged against a reference dose that is usually intravenous. Low values mean little systemic uptake, high ones much systemic uptake. In the case of `CO[C@@]1(NC(=O)Cc2cccs2)C(=O)N2C(C(=O)O)=C(COC(N)=O)CS[C@@H]21` [Cefoxitin, (6R-cis)-3-[[(Aminocarbonyloxy]methyl]-7-methoxy-8-oxo-7-[(2-thienylacetyl))amino]-5-thia-1-azabicyclo [4.2.0]oct-2-ene-2-carboxylic acid], the bioavailability at 1.5 h in the data set “in vivo” is 2 ± 0.6%.

With `CN(C)CCCN1c2ccccc2Sc2ccc(Cl)cc21` [Chlorpromazine, chlorpromazine], the “% Bioavailability ± SEM, Gentamicin” value in data set [1] came to 107 ± 6.2%. Same read-out and setting: next, `OCCN1CCN(CCCN2c3ccccc3Sc3ccc(Cl)cc32)CC1` [Perphenazine, perphenazine]: 100 ± 8.3%. On to `CN1CCN(CCCN2c3ccccc3Sc3ccc(Cl)cc32)CC1` [Prochlorperazine], for which the “% Bioavailability ± SEM, Gentamicin” value in data set [1] worked out at 76 ± 10.9%. Still for that read-out and setting: next, `CSc1ccc2c(c1)N(CCC1CCCCN1C)c1ccccc1S2` (stereo not shown) [Tiorioazine, thioridazine]: 115 ± 11.5%. As for Gentamicin, the “Control bioavailability (without adjuvant)” value in data set [2] turned out to be 1 ± 0.7%. Moreover, in data set [1] (10 mg/kg, 1.5 h), the “% Bioavailability ± SEM, Gentamicin (adjuvant: None)” value turned out to be 1 ± 0.7%.
